The source of these data is US11834440B2, “Beta-lactam derivatives for the treatment of diseases” (Insilico Medicine IP Limited, priority 2021, dated 2023).

A word on the IC50: it is the concentration that inhibits the measured activity by half. Low values mean greater potency, high ones weaker potency.

Each structure is given as a SMILES string. Bounds are passed on as bounds.

Sequence of QPCTL (Q9NXS2 whole entry, species assumed): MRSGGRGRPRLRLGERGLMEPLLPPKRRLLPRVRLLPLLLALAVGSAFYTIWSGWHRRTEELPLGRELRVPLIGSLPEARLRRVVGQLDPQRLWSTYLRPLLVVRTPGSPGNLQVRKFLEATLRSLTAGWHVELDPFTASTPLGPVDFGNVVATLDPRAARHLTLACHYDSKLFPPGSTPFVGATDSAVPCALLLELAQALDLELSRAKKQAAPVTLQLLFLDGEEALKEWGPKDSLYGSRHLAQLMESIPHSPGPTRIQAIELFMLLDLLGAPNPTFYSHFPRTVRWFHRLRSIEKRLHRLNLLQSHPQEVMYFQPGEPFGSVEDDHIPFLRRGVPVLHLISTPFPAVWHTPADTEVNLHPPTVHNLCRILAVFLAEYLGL

This assay addresses QPCTL (Homo sapiens (Human), UniProt Q9NXS2). The assay is described as follows: QPCTL inhibition, SensoLyte Green Glutaminyl Cyclase Activity Assay. The assay is classed as biochemical. To be noted: 0.8 nM 2x enzyme solution, 45 min at 37° C., 50 mM Tris pH 8.0, 1% DMSO. The procedure: Preparation of working solution: 2×Glutaminyl Cyclase substrate was diluted in assay buffer to […]. 2×enzyme solution and QPCTL was diluted in assay buffer to 0.8 nM. Glutaminyl Cyclase Developer was diluted in assay buffer to 1×(containing 10 mM 1-Benzyl-Imidazole). Serial dilution of test compounds was performed in DMSO. The final DMSO concentration in 100 μl reaction was 1%. The assay buffer was 50 mM Tris, pH 8.0, 0.01% BSA.
Procedure: 50 μL of 2×Glutaminyl Cyclase substrate solution was added into the assay plate followed by 50 μL of 2×enzyme solution. The plate was centrifuged for 1 min at 1000 rmp. Next the plate was incubated for 45 minutes at 37° C. This was followed by the additional of 50 μL of the prepared Glutaminyl Cyclase developer and incubated for additional 30 min at 37° C. Results were read on SpectraMax Paradigm detecting with emission at Ex/Em=490 nm/520 nm.
A Z′ value was calculated for each assay plate. The Z′ value must be >0.5 or the plate was disqualified. […] Results were calculated using GraphPad Prism 7 software is used for IC50 determination.
`C[C@H]1C(=O)N(c2ccc3[nH]cnc3c2)[C@H]1c1c(F)cc(OCCC(F)F)cc1F` (single isomer, unassigned) [Compound 7B] registered an IC50 below 2 nM.
Turning to `Cc1ccc(-c2cc(F)c([C@H]3[C@@H](C4CC4)C(=O)N3c3ccc4[nH]cnc4c3)c(F)c2)nn1` (single isomer, unassigned) [Compound 65B], the IC50 was below 2 nM.
The figure for `C[C@H]1C(=O)N(c2ccc3[nH]cnc3c2)[C@H]1c1c(F)cc(N2CCC(F)(F)CC2)cc1F` (single isomer, unassigned) [Compound 30B] is 2 to 25 nM.
The figure for `O=C1[C@H](C2CC2)[C@H](c2c(F)cc(-n3cc(C(F)(F)F)cn3)cc2F)N1c1ccc2[nH]cnc2c1` (single isomer, unassigned) [Compound 58B] is below 2 nM.
The figure for `Cc1cc(-c2cc(F)c([C@H]3[C@@H](C4CC4)C(=O)N3c3ccc4[nH]cnc4c3)c(F)c2)on1` (single isomer, unassigned) [Compound 62B] is below 2 nM; for `O=C1[C@H](C2CC2)[C@H](c2ccc(-c3cnn(C(F)(F)F)c3)cc2Cl)N1c1ccc2[nH]cnc2c1` (single isomer, unassigned) [Compound 75B] it is below 2 nM.
Compound `Cc1nc(-c2cc(F)c([C@H]3[C@@H](C)C(=O)N3c3ccc4[nH]cnc4c3)c(F)c2)cs1` (racemic) [Compound 10CR, (cis and racemic)-1-(1H-benzo[d]imidazol-5-yl)-4-(2,6-difluoro-4-(2-methylthiazol-4-yl)phenyl)-3-methylazetidin-2-one] showed an IC50 of 2 to 25 nM.
The value for `O=C1[C@H](C2CC2)[C@H](c2c(F)cc(C3CC3)cc2F)N1c1ccc2[nH]cnc2c1` (single isomer, unassigned) [Compound 69B] was below 2 nM; that for `O=C1[C@H](C2CC2)[C@H](c2ccc(OCCC(F)F)nc2)N1c1ccc2[nH]cnc2c1` (single isomer, unassigned) [Compound 45B] was below 2 nM.
Compound `Cc1cc(-n2cnc(C(F)(F)F)c2)ncc1[C@H]1[C@@H](C2CC2)C(=O)N1c1ccc2[nH]cnc2c1` (single isomer, unassigned) [Compound 73B] had an IC50 below 2 nM.
The value for `Cc1nc(-c2cnn(C(F)(F)F)c2)ccc1[C@H]1[C@@H](C2CC2)C(=O)N1c1ccc2[nH]cnc2c1` (single isomer, unassigned) [Compound 68B] was below 2 nM; that for `C[C@@H]1C(=O)N(c2ccc3[nH]cnc3c2)[C@@H]1c1c(F)cc(-c2cnn(C)c2)cc1F` (single isomer, unassigned) [Compound 13A] was above 1000 nM; that for `O=C1[C@@H](C2CC2)[C@@H](c2c(F)cc(OCCC(F)F)cc2F)N1c1ccc2[nH]cnc2c1` (single isomer, unassigned) [Compound 18A] was above 1000 nM.
Take `O=C1[C@H](C2CC2)[C@H](c2ccc(-c3cnn(C(F)(F)F)c3)nc2)N1c1ccc2[nH]cnc2c1` (single isomer, unassigned) [Compound 43B]: the IC50 was below 2 nM.
The value for `O=C1[C@@H](C2CC2)[C@@H](c2ccc(-c3cnn(C(F)(F)F)c3)cc2Cl)N1c1ccc2[nH]cnc2c1` (single isomer, unassigned) [Compound 75A] was 25 to 1000 nM.
The value for `O=C1[C@H](C2CC2)[C@H](c2c(F)cc(OCCC(F)F)cc2F)N1c1ccc2[nH]cnc2c1` (single isomer, unassigned) [Compound 18B] was below 2 nM.
The value for `Cc1nc(-c2ccc(C(F)(F)F)nn2)ccc1[C@H]1[C@@H](C2CC2)C(=O)N1c1ccc2[nH]cnc2c1` (single isomer, unassigned) [Compound 70B] was below 2 nM; that for `O=C1[C@H](O)[C@H](c2c(F)cc(OCCC(F)F)cc2F)N1c1ccc2[nH]cnc2c1` (single isomer, unassigned) [Compound 8B] was below 2 nM.
Compound `O=C1[C@H](C2CC2)[C@H](c2ccc(-c3cnn(C(F)(F)F)c3)cn2)N1c1ccc2[nH]cnc2c1` (single isomer, unassigned) [Compound 46B] registered an IC50 below 2 nM.
